ChEMBL document CHEMBL1143107 (Bioorg Med Chem, 2008)

Assays:
Homo sapiens [1] = species: Homo sapiens; assay: Ratio of IC50 for human COX1 to IC50 for human COX2 in human whole blood; format: tissue-based
[2] = target: T1, Prostaglandin G/H synthase 2 (Homo sapiens, UniProt P35354)
T1 sequence (P35354 whole entry): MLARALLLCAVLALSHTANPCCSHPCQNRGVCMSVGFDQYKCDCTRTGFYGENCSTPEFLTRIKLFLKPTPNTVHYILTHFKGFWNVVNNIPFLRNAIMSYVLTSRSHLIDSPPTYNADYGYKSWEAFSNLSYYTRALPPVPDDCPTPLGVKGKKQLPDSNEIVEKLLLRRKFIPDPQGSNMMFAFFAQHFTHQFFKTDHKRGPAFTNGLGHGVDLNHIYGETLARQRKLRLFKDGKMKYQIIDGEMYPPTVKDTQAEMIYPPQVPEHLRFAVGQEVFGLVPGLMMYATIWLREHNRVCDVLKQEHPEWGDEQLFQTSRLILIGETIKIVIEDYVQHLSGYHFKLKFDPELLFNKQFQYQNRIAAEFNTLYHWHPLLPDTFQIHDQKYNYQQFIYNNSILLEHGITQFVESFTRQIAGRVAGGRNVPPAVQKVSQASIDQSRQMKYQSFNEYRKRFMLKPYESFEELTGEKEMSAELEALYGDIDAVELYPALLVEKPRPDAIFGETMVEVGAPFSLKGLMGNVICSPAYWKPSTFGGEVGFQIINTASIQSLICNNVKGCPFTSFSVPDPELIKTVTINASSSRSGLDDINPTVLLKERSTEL

Homo sapiens [3] = species: Homo sapiens; assay: Ratio of IC50 for human COX1 to IC50 for human COX2
[4] = target: T1, Prostaglandin G/H synthase 2; remark: listed apart in the source
Description: Inhibition of human COX2 in human whole blood

| Ratio IC50 (Homo sapiens [3]) | IC50 [4] [nM] | SMILES | Ratio IC50 (Homo sapiens [1]) | IC50 [2] [nM] |
| --- | --- | --- | --- | --- |
| > 1 | > 10000 | CS(=O)(=O)c1ccc(-c2nc(NCc3ccccn3)cc(C(F)(F)F)n2)cc1 | > 1 | > 10000 |
|  | 22.4 | Cc1c(NCc2ccc(F)cc2)nc(-c2ccc(S(C)(=O)=O)cc2)nc1C(F)(F)F | > 447 |  |
| > 498 | 140 | CS(=O)(=O)c1ccc(-c2nc(NCc3ccco3)cc(C(F)(F)F)n2)cc1 | > 497 | 201 |
|  | 24.1 | CCSc1cc(NCc2ccccc2)nc(-c2ccc(S(C)(=O)=O)cc2)n1 | 414 |  |
|  | > 10000 | CS(=O)(=O)c1ccc(-c2nc(NCc3ccc(OC(F)(F)F)cc3)cc(C(F)(F)F)n2)cc1 | > 1 |  |
|  | > 10000 | CS(=O)(=O)c1ccc(-c2nc([S+]([O-])Cc3ccccc3)cc(C(F)(F)F)n2)cc1 (stereo not drawn) | > 1 |  |
|  | 522 | CC(Nc1cc(C(F)(F)F)nc(-c2ccc(S(C)(=O)=O)cc2)n1)c1ccccc1 (stereo not drawn) | 74 |  |
|  | > 10000 | CC(C)c1ccc(CNc2cc(C(F)(F)F)nc(-c3ccc(S(C)(=O)=O)cc3)n2)cc1 | > 1 |  |
|  | > 10000 | COCOc1ccc(CNc2cc(C(F)(F)F)nc(-c3ccc(S(C)(=O)=O)cc3)n2)cc1 | > 1 |  |
|  | 9.2 | CS(=O)(=O)c1ccc(-c2nccc(NCc3cccs3)n2)cc1 | > 10900 |  |
|  | > 10000 | CCN(Cc1ccccc1)c1cc(C(F)(F)F)nc(-c2ccc(S(C)(=O)=O)cc2)n1 | > 1 |  |
|  | 528 | Cc1ccsc1CNc1cc(C(F)(F)F)nc(-c2ccc(S(C)(=O)=O)cc2)n1 | 189 |  |
|  | 36.7 | Cc1ccc(CNc2nc(-c3ccc(S(C)(=O)=O)cc3)nc(Cl)c2C)cc1 | > 2730 |  |
|  | > 10000 | CS(=O)(=O)c1ccc(-c2nc(Nc3ccccc3)cc(C(F)(F)F)n2)cc1 | > 1 |  |
| > 3610 |  | CS(=O)(=O)c1ccc(-c2nc(NCC3CCCCC3)cc(C(F)(F)F)n2)cc1 | > 68 |  |
|  | 300 | CS(=O)(=O)c1ccc(-c2nc(NCc3cc(F)cc(F)c3)cc(C(F)(F)F)n2)cc1 | > 333 |  |
|  | 5.1 | COc1cc(NCc2ccccc2)nc(-c2ccc(S(C)(=O)=O)cc2)n1 | > 19600 |  |
|  | 274 | CC(C)Nc1cc(NCc2ccccc2)nc(-c2ccc(S(C)(=O)=O)cc2)n1 | > 365 |  |
|  | 3980 | Cn1cccc1CCNc1cc(C(F)(F)F)nc(-c2ccc(S(C)(=O)=O)cc2)n1 | > 25 |  |
|  | 11.7 | Cc1ccc(CNc2cc(C(F)(F)F)nc(-c3ccc(S(C)(=O)=O)cc3)n2)s1 | > 852 |  |
|  | > 10000 | CS(=O)(=O)c1ccc(-c2nccc(NCc3ccccc3)n2)cc1 | > 1 |  |
|  | 272 | COc1ccc(CNc2cc(C(F)(F)F)nc(-c3ccc(S(C)(=O)=O)cc3)n2)cc1 | > 367 |  |
|  | 44.4 | Cc1ccc(CNc2cc(Cl)nc(-c3ccc(S(C)(=O)=O)cc3)n2)cc1 | > 2250 |  |
|  | 18 | Cc1c(NCc2ccccc2)nc(-c2ccc(S(C)(=O)=O)cc2)nc1C(F)(F)F | > 556 |  |
|  | 38.2 | Cc1c(NCc2cccs2)nc(-c2ccc(S(C)(=O)=O)cc2)nc1C(F)(F)F | > 78 |  |
|  | 121 | CCc1c(NCc2cccs2)nc(-c2ccc(S(C)(=O)=O)cc2)nc1C(F)(F)F | > 83 |  |
|  | 90.7 | CCS(=O)(=O)c1cc(NCc2ccccc2)nc(-c2ccc(S(C)(=O)=O)cc2)n1 | > 110 |  |
|  | > 10000 | CS(=O)(=O)Oc1ccc(CNc2cc(C(F)(F)F)nc(-c3ccc(S(C)(=O)=O)cc3)n2)cc1 | > 1 |  |
|  | > 10000 | CS(=O)(=O)c1ccc(-c2nc(C(F)(F)F)cc(S(=O)(=O)Cc3ccccc3)n2)cc1 | > 1 |  |
|  | 144 | CCS(=O)(=O)c1cc(NCc2cccs2)nc(-c2ccc(S(C)(=O)=O)cc2)n1 | 15 |  |

Further lines, the molecule ahead of its results:

| SMILES | Ratio IC50 (Homo sapiens [3]) | IC50 [4] [nM] | Ratio IC50 (Homo sapiens [1]) | IC50 [2] [nM] |
| --- | --- | --- | --- | --- |
| COc1cc(NCc2cccs2)nc(-c2ccc(S(C)(=O)=O)cc2)n1 |  |  | > 22000 |  |
| CS(=O)(=O)c1ccc(-c2nc(Cl)cc(NCc3ccc(F)cc3)n2)cc1 |  |  | 2970 |  |
| Cn1cccc1CNc1cc(C(F)(F)F)nc(-c2ccc(S(C)(=O)=O)cc2)n1 | > 562 | 28.8 | > 3470 | 178 |
| CCSc1cc(NCc2cccs2)nc(-c2ccc(S(C)(=O)=O)cc2)n1 |  | 1.2 | > 8400 |  |
| CCc1c(NCc2ccc(F)cc2)nc(-c2ccc(S(C)(=O)=O)cc2)nc1C(F)(F)F |  |  | > 972 |  |
| Cc1cccc(CNc2cc(C(F)(F)F)nc(-c3ccc(S(C)(=O)=O)cc3)n2)c1 |  |  | > 52 |  |
| NS(=O)(=O)c1ccc(-c2nc(NCc3ccncc3)cc(C(F)(F)F)n2)cc1 | > 52 | 3330 | > 3 | 1890 |
| CC[S+]([O-])c1cc(NCc2cccs2)nc(-c2ccc(S(C)(=O)=O)cc2)n1 (stereo not drawn) |  |  | > 266 |  |
| CS(=O)(=O)c1ccc(-c2nc(SCc3cccs3)cc(C(F)(F)F)n2)cc1 |  | 4.1 | > 24400 |  |
| CS(=O)(=O)c1ccc(-c2nc(NCc3ccc(N)cc3)cc(C(F)(F)F)n2)cc1 |  |  | 473 |  |
| CS(=O)(=O)c1ccc(-c2nc(NC3CCCCC3)cc(C(F)(F)F)n2)cc1 |  | 238 |  | 253 |
| CS(=O)(=O)c1ccc(-c2nc(NCc3ccc(F)cc3)cc(C(F)(F)F)n2)cc1 |  | 77.2 | 1300 |  |
| CC(C)c1cc(NCc2ccccc2)nc(-c2ccc(S(C)(=O)=O)cc2)n1 |  |  | > 396 |  |
| CS(=O)(=O)c1ccc(-c2nc(NCCc3cccs3)cc(C(F)(F)F)n2)cc1 |  |  | > 83 |  |
| CS(=O)(=O)c1ccc(-c2nc(Cl)cc(NCc3cccs3)n2)cc1 |  |  | > 81300 |  |
| Cc1ccccc1CNc1cc(C(F)(F)F)nc(-c2ccc(S(C)(=O)=O)cc2)n1 |  |  | > 17 |  |
| CN(Cc1ccccc1)c1cc(C(F)(F)F)nc(-c2ccc(S(C)(=O)=O)cc2)n1 |  |  | 22 |  |
| CS(=O)(=O)c1ccc(-c2nc(O)cc(NCc3ccccc3)n2)cc1 |  |  | > 2030 |  |
| CC(C)(C)c1cc(NCc2ccccc2)nc(-c2ccc(S(C)(=O)=O)cc2)n1 |  |  | 1060 |  |
| CS(=O)(=O)c1ccc(-c2nc(SCc3ccccc3)cc(C(F)(F)F)n2)cc1 |  | 528 | > 189 |  |
| CS(=O)(=O)c1ccc(-c2nc(NCc3cc4ccccc4s3)cc(C(F)(F)F)n2)cc1 |  | 293 |  | 5.92 |
| Cc1c(Cl)nc(-c2ccc(S(C)(=O)=O)cc2)nc1NCc1ccc(F)cc1 |  |  | > 145 |  |
| CC(C)Nc1cc(NCc2cccs2)nc(-c2ccc(S(C)(=O)=O)cc2)n1 |  | 10.3 | > 9720 |  |
| CS(=O)(=O)c1ccc(-c2nc(NCc3ccc(C(F)(F)F)cc3)cc(C(F)(F)F)n2)cc1 |  |  | > 52 |  |
| Cc1ccc(CNc2cc(C(F)(F)F)nc(-c3ccc(S(C)(=O)=O)cc3)n2)cc1 |  | 48.4 | > 2060 |  |
| CS(=O)(=O)c1ccc(-c2nc(Cl)cc(NCc3ccccc3)n2)cc1 |  |  | > 9120 |  |
| CS(=O)(=O)c1ccc(-c2nc(NCc3ccc(O)cc3)cc(C(F)(F)F)n2)cc1 |  |  | > 158 |  |
| CS(=O)(=O)c1ccc(-c2nc(O)cc(NCc3cccs3)n2)cc1 |  |  | > 1260 |  |
| CC(C)c1ccc(Nc2cc(C(F)(F)F)nc(-c3ccc(S(C)(=O)=O)cc3)n2)cc1 |  | > 10000 | > 1 |  |
